In general, solubility refers to how much of the substance goes into solution per volume. The low end stands for a poorly soluble substance, the high end for a readily soluble substance.

The values below come from US9169262B2, “Crystalline salts of Asenapine with organic di-acids and tri-acids” (SANDOZ AG, priority 2011, dated 2015).

Structures can show the parent of a compound that is named as a salt.

The nature of data set [1]: Polymorphic stability: suspension equilibration in water, PXRD. Format: physicochemical. Conditions: 25° C., 600 rpm, two days.
Data set [2] is described as follows: Polymorphic stability: stirring in acetonitrile or organic solvent mixture, PXRD. The following applies: for polymorph conversion in acetonitrile (PXRD): suspension in acetonitrile, room temperature, five days; for polymorph conversion in acetonitrile-acetone 1:1 (PXRD): suspension stirred at room/ambient temperature, four days.
Procedure: The stability test is carried out by stirring the sample salt at 600 rpm in an amount of approximately 0.1 g/ml acetonitrile and optionally water as defined above. After 96 hours of stirring, the salt is removed by filtration and is dried and then subjected to X-ray powder diffraction analysis.
A short description of data set [3]: Water uptake / hygroscopicity by dynamic vapor sorption. The following applies: for hygroscopic nature: dynamic vapor sorption; for water uptake (dynamic vapor sorption): up to 95% rel. humidity, citrate: most uptake above 80% relative humidity. Format: physicochemical. The source says:
The hygroscopic nature of the citrate salt was investigated by dynamic vapor sorption.

The conditions of data set [4]: 23° C., pH=4.4; cited from earlier work.
A short description of data set [5]: Solubility of Asenapine maleate in saturated solution (literature, Funke et al.). Format: physicochemical. Conditions: saturated aqueous solution, water, thermodynamic from solid; maleate solubility at 23° C., pH=4.4, translated into free base. The source says: Certain crystalline addition salts of Asenapine, for instance a fumarate (EP 0569096), salts with sulfonic acids (WO98/54186), and a pamoate or hemipamoate salt (EP569096), are described in the literature. The pamoate salt is disclosed to be amorphous and the hemipamoate salt is a mixture of amorphous and crystalline phase, wherein the palmitate is described as oil. The marketed form is the maleate salt, which is disclosed to exist in polymorphic forms (WO 2006/106135). The known Asenapine salts have a low solubility in water.

Setting [6] is: listed as Asenapine citrate of the invention.

Turning to `CN1C[C@H]2c3ccccc3Oc3ccc(Cl)cc3[C@@H]2C1.O=C(O)CC(O)(CC(=O)O)C(=O)O` [crystalline Asenapine citrate form I], the “polymorph conversion in water suspension (PXRD)” value is given as “no phase transformation was observed” in data set [1] and “does not change its polymorphic form” in data set [1] (setting [6]). Also, the “polymorph conversion in acetonitrile (PXRD)” value is listed as “no phase transformation was observed” in data set [2] and “does not change its polymorphic form” in data set [2] (setting [6]). Besides, in data set [3], the hygroscopic nature result is “not or only very slightly hygroscopic”. Further, in data set [3], the “water uptake (dynamic vapor sorption)” value was “about 1.5%”.
Consider `CN1CC2c3ccccc3Oc3ccc(Cl)cc3C2C1` (centres unmarked) [maleate salt of Asenapine], for which the “concentration of saturated solution” value in data set [4] is 5800 µg/mL. Also, the solubility in data set [5] is approximately 4100 µg/mL.
Regarding `CN1CC2c3ccccc3Oc3ccc(Cl)cc3C2C1.O=C(O)CC(=O)O` (centres unmarked) [crystalline Asenapine malonate form I], the “polymorph conversion in water suspension (PXRD)” value in data set [1] was “no phase transformation was observed”; in data set [1] (listed as crystalline malonate of the invention), “no polymorph conversion was observed”. Besides, the “polymorph conversion in acetonitrile-acetone 1:1 (PXRD)” value in data set [2] is “no phase transformation was observed”; in data set [2] (listed as crystalline Asenapine malonate of the invention), “No polymorph conversion”. The hygroscopic nature entry in data set [3] is reported as “completely non-hygroscopic”. Further, the “water uptake (dynamic vapor sorption)” value in data set [3] was “less than 0.2%”.
